Assay results taken from PubChem BioAssay AID328 (DTP/NCI, 2004).
Values joined by “and” are separate entries in the source; they are usually repeats but may differ in a detail not shown here. Identical values can stand only once. Toxic doses and inconclusive results are not listed.

Tested on: BDF1 mice, P388 leukemia ip, median survival T/C
Assay: NCI In Vivo Anticancer Drug Screen. Data for tumor model P388 Leukemia (intraperitoneal) in B6D2F1 (BDF1) mice
Settings: endpoint: median survival time, higher = longer survival
Summary of the method: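 Compound-treated tumour-bearing mice were compared with vehicle-treated controls. Survival was recorded, and the value is the treated-group measurement divided by the control-group measurement (T/C).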

[1] = dose: 6.25 mg/kg/injection, schedule: Q01DX009 (ip), vehicle: saline with Tween-80
[2] = dose: 12.5 mg/kg/injection, schedule: Q01DX009 (ip), vehicle: saline with Tween-80
[3] = dose: 25.0 mg/kg/injection, schedule: Q01DX009 (ip), vehicle: saline with Tween-80
[4] = dose: 50.0 mg/kg/injection, schedule: Q01DX009 (ip), vehicle: saline with Tween-80
[5] = dose: 100.0 mg/kg/injection, schedule: Q01DX009 (ip), vehicle: saline with Tween-80
[6] = dose: 200.0 mg/kg/injection, schedule: Q01DX009 (ip), vehicle: saline with Tween-80

For `CC(C)C(C)/C=C\C(C)C1CCC2C3=CCC4CC(=O)CCC4(C)C3CCC21C` (configuration not stated), the T/C [1] was 104 % of control, the T/C [2] was 104 % of control and the T/C [3] was 108 % of control.

In the case of `CNc1nc2c(N)ncnc2n1C1OC(CO)C(O)C1O` (configuration not stated), the T/C [1] was 105 % of control and the T/C [2] was 123 % of control.

With `CCC(=O)Nc1ccc(C)cc1C` the T/C (dose: 100.0 mg/kg/injection, schedule: Q01DX009 (ip), vehicle: Klucel (hydroxypropylcellulose) (HPC)) was 104 % of control, the T/C (dose: 100.0 mg/kg/injection, schedule: Q04DX003 (ip), vehicle: Klucel (hydroxypropylcellulose) (HPC)) was 104 % of control and the T/C (dose: 200.0 mg/kg/injection, schedule: Q01DX009 (ip), vehicle: Klucel (hydroxypropylcellulose) (HPC)) was 100 % of control. For the same compound, the T/C (dose: 200.0 mg/kg/injection, schedule: Q04DX003 (ip), vehicle: Klucel (hydroxypropylcellulose) (HPC)) was 90 % of control, the T/C (dose: 400.0 mg/kg/injection, schedule: Q01DX009 (ip), vehicle: Klucel (hydroxypropylcellulose) (HPC)) was 95 % of control and the T/C (dose: 400.0 mg/kg/injection, schedule: Q04DX003 (ip), vehicle: Klucel (hydroxypropylcellulose) (HPC)) was 90 % of control.

For `CCS(=O)(=O)CCN1C(=O)CN=C(c2ccccc2F)c2cc(Cl)ccc21`, the T/C [2] was 114 % of control, the T/C [3] was 96 % of control and the T/C [4] was 103 % of control and 123 % of control. The T/C [5] was 90 % of control and 107 % of control.

In the case of `CCCCCCCCCCC[N+](C)(C)CC[N+](C)(C)CCCCCCCCCCC`, the T/C (dose: 3.13 mg/kg/injection, schedule: Q01DX009 (ip), vehicle: saline) was 107 % of control, the T/C (dose: 6.25 mg/kg/injection, schedule: Q01DX009 (ip), vehicle: saline) was 110 % of control and the T/C (dose: 12.5 mg/kg/injection, schedule: Q01DX009 (ip), vehicle: saline) was 111 % of control.

`Cc1c(N)cc([N+](=O)[O-])c(C)c1[N+](=O)[O-]` was tested, and the T/C [4] was 95 % of control and the T/C [5] was 90 % of control.

`COc1ccc(CC2OCCC3c4ccccc4NC23)cc1OC` (configuration not stated) was tested, and the T/C (dose: 100.0 mg/kg/injection, schedule: Q04DX003 (ip), vehicle: saline with Tween-80) was 93 % of control, the T/C (dose: 200.0 mg/kg/injection, schedule: Q04DX003 (ip), vehicle: saline with Tween-80) was 109 % of control and the T/C (dose: 400.0 mg/kg/injection, schedule: Q04DX003 (ip), vehicle: saline with Tween-80) was 111 % of control.

For `COC(=O)C1(C)CCCC2(C)C1CCC13C=C(C(C)C)C(CC1C(=O)O)CC23` (configuration not stated), the T/C [4] was 95 % of control, the T/C [5] was 91 % of control and the T/C [6] was 95 % of control.

For `COc1ccc(C2=C(c3ccccc3)C(c3ccccc3)=C(c3ccc(OC)cc3)C2=O)cc1`, the T/C [4] was 103 % of control, the T/C [5] was 89 % of control and the T/C [6] was 99 % of control. For the same compound, the T/C (dose: 400.0 mg/kg/injection, schedule: Q01DX009 (ip), vehicle: saline with Tween-80) was 94 % of control.

In the case of `CC(=O)C/C(C)=N/NC(=O)c1ccncc1`, the T/C (dose: 150.0 mg/kg/injection, schedule: Q01DX009 (ip), vehicle: saline with Tween-80) was 90 % of control.

With `O=C(CNC(=O)c1ccc(C(=O)NCC(=O)Nc2ccc(C3=NCCCN3)cc2)cc1)Nc1ccc(C2=NCCCN2)cc1` the T/C (dose: 11.0 mg/kg/injection, schedule: Q04DX003 (ip), vehicle: saline) was 100 % of control, the T/C (dose: 16.0 mg/kg/injection, schedule: Q04DX003 (ip), vehicle: saline) was 113 % of control and the T/C (dose: 25.0 mg/kg/injection, schedule: Q01DX001 (ip), vehicle: Klucel (hydroxypropylcellulose) (HPC)) was 96 % of control. The T/C (dose: 50.0 mg/kg/injection, schedule: Q01DX001 (ip), vehicle: Klucel (hydroxypropylcellulose) (HPC)) was 103 % of control, the T/C (dose: 66.0 mg/kg/injection, schedule: Q04DX003 (ip), vehicle: saline) was 168 % of control and the T/C (dose: 75.0 mg/kg/injection, schedule: Q01DX001 (ip), vehicle: Klucel (hydroxypropylcellulose) (HPC)) was 107 % of control. The T/C (dose: 100.0 mg/kg/injection, schedule: Q01DX001 (ip), vehicle: Klucel (hydroxypropylcellulose) (HPC)) was 115 % of control, the T/C (dose: 100.0 mg/kg/injection, schedule: Q04DX003 (ip), vehicle: saline) was 181 % of control (2×) and 195 % of control and the T/C (dose: 150.0 mg/kg/injection, schedule: Q04DX003 (ip), vehicle: saline) was 272 % of control and 186 % of control. The T/C (dose: 400.0 mg/kg/injection, schedule: Q01DX001 (ip), vehicle: Klucel (hydroxypropylcellulose) (HPC)) was 168 % of control.

In the case of `C[NH-].C[NH-].[I][Pt+2][I]`, the T/C (dose: 1.56 mg/kg/injection, schedule: Q04DX003 (ip), vehicle: other) was 120 % of control, the T/C (dose: 3.12 mg/kg/injection, schedule: Q04DX003 (ip), vehicle: other) was 120 % of control and the T/C (dose: 6.25 mg/kg/injection, schedule: Q04DX003 (ip), vehicle: other) was 163 % of control. For the same compound, the T/C (dose: 12.5 mg/kg/injection, schedule: Q04DX003 (ip), vehicle: other) was 163 % of control, the T/C (dose: 50.0 mg/kg/injection, schedule: Q04DX003 (ip), vehicle: other) was 154 % of control and the T/C (dose: 100.0 mg/kg/injection, schedule: Q04DX003 (ip), vehicle: other) was 116 % of control.
